Reference: US9856279B2 (AGIOS PHARMACEUTICALS, INC, priority 2011, dated 2018)

Tests used:
IDH1 R132H = IDH1 R132H (Homo sapiens, UniProt O75874, R132H); assay: Assay for IDH1 R132H inhibitors (NADPH/aKG, resazurin detection); assay type: biochemical; conditions: enzyme assay of Example 12; read-out: IDH1R132H IC50
Summary of the method: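 Compound added to substrate mix (8 uM NADPH, 2 mM aKG), then enzyme mix (0.2 μg/ml IDH1 R132H); 50 min RT in 20 mM Tris pH 7.5, 150 mM NaCl, 10 mM MgCl2, 0.03% BSA. Resazurin detection mix (30 μM) 5 min RT; resorufin fluorescence Ex544/Em590.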

HT1080 cells = assay: Cellular assay for IDH1m inhibitors: inhibition of 2-HG production (LC-MS, 48 hours) in HT1080 cells; assay type: cell-based; conditions: Homo sapiens, HT-1080; inhibition of 2-HG production, HT1080 cells; read-out: HT1080 IC50
Summary of the method: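 HT1080 or U87MG cells were seeded at 5000/well in DMEM with 10% FBS, incubated overnight, then treated with compounds (0.2% DMSO final) for 48 h. Medium 2-HG was quantified by LC-MS, and IC50 was taken as the concentration reducing 2-HG by 50% versus DMSO control.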

U87MG cells = assay: Cellular assay for IDH1m inhibitors: inhibition of 2-HG production (LC-MS, 48 hours) in U87MG cells; assay type: cell-based; conditions: Homo sapiens, U-87 MG, inhibition of 2-HG production, U87R132H cells; read-out: U87R132H IC50
Description: Cells (e.g., HT1080 or U87MG) and are grown in T125 flasks in DMEM containing 10% FBS, 1× penicillin/streptomycin and 500 ug/mL G418. They are harvested by trypsin and seeded into 96 well white bottom plates at a density of 5000 cell/well in 100 ul/well in DMEM with 10% FBS. No cells are plates in columns 1 and 12. Cells are incubated overnight at 37° C. in 5% CO2. The next day compounds are made up at 2× concentration and 100 ul are added to each cell well. The final concentration of DMSO is 0.2% and the DMSO control wells are plated in row G. The plates are then placed in the incubator for 48 hours. At 48 hours, 100 μl of media is removed from each well and analyzed by LC-MS for 2-HG concentrations. The cell plate is placed back in the incubator for another 24 hours. At 72 hours post compound addition, 10 mL/plate of Promega Cell Titer Glo reagent is thawed and mixed. The cell plate is removed from the incubator and allowed to equilibrate to room temperature. Then 100 ul of reagent is added to each well of media. The cell plate is then placed on an orbital shaker for 10 minutes and then allowed to sit at room temperature for 20 minutes. The plate is then read for luminescence with an integration time of 500 ms.
The IC50 for inhibition of 2-HG production (concentration of test compound to reduce 2HG production by 50% compared to control) in these two cell lines for various compounds of formula I is set forth in Table 4 above.

IDH1 R132H, sequence (O75874 whole entry R132H): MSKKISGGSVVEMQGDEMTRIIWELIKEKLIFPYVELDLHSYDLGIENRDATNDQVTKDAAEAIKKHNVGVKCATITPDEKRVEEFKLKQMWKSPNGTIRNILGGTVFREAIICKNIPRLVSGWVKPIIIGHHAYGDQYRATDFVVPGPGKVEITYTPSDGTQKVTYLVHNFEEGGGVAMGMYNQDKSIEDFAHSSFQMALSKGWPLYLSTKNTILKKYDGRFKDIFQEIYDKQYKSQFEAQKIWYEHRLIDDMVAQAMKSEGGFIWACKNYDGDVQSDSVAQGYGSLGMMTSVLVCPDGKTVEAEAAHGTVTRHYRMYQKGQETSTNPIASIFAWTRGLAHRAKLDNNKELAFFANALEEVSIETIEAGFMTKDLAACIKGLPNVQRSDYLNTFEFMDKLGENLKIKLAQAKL

Row | Compound | IC50 (IDH1 R132H) [nM] | IC50 (HT1080 cells) [nM] | IC50 (U87MG cells) [nM]
1 | C=Cc1ccnc(Nc2cc(C#N)c(N3CCN(C(=O)CCOC)[C@H](C)C3)nc2C2CC2)n1 [Compound 736, (R)-6-cyclopropyl-2-(4-(3-methoxypropanoyl)-3-methylpiperazin-1-yl)-5-((4-vinylpyrimidin-2-yl)amino)nicotinonitrile] | < 500 | < 500 | < 500
2 | C=CC(=O)N1CCC=C(c2cc(C#N)c(N3CCN(C(=O)CCO)[C@H](C4CC4)C3)nc2C2CC2)C1 [Compound 727, (R)-5-(1-acryloyl-1,2,5,6-tetrahydropyridin-3-yl)-6-cyclopropyl-2-(3-cyclopropyl-4-(3-hydroxypropanoyl)piperazin-1-yl)nicotinonitrile] | < 500 | < 500 | < 500
3 | C=Cc1cc(-c2c(C3CC3)nc(N3CCN(C(=O)CCCO)[C@H](C4CC4)C3)c(C#N)c2C)ccn1 [Compound 770, (R)-2-cyclopropyl-6-(3-cyclopropyl-4-(4-hydroxybutanoyl)piperazin-1-yl)-4-methyl-2′-vinyl-3,4′-bipyridine-5-carbonitrile] | < 500 | < 500 | < 500
4 | CCS(=O)(=O)Nc1cccc(-c2cc(C#N)c(N3CCN(C(=O)CCOC)[C@H](C)C3)nc2C2CC2)c1 [Compound 448, (R)—N-(3-(5-cyano-2-cyclopropyl-6-(4-(3-methoxypropanoyl)-3-methylpiperazin-1-yl)pyridin-3-yl)phenyl)ethanesulfonamide] | < 500 | 1000 to 10000 | 1000 to 10000
5 | COCCC(=O)N1CCN(c2nc(C3CC3)c(OCc3cccc([N+](=O)[O-])c3)cc2C#N)C[C@H]1C [Compound 312, (R)-6-cyclopropyl-2-(4-(3-methoxypropanoyl)-3-methylpiperazin-1-yl)-5-(3-nitrobenzyloxy)nicotinonitrile] | < 500 | 500 to 1000 | 1000 to 10000
6 | COCCC(=O)N1CCN(c2nc(C3CC3)c(-c3cccc4cnccc34)cc2C#N)CC1C(F)(F)F (stereo not shown) [Compound 398, 6-cyclopropyl-5-(isoquinolin-5-yl)-2-(4-(3-methoxypropanoyl)-3-(trifluoromethyl)piperazin-1-yl)nicotinonitrile] | < 500 | 1000 to 10000 | 500 to 1000
7 | C=Cc1cnc2c(-c3cc(C#N)c(N4CCN(C(=O)CCOC)[C@H](C(C)C)C4)nc3C3CC3)cccc2n1 [Compound 605, (R)-6-cyclopropyl-2-(3-isopropyl-4-(3-methoxypropanoyl)piperazin-1-yl)-5-(2-vinylquinoxalin-5-yl)nicotinonitrile] | < 500 | < 500 | < 500
8 | C=CC(=O)N1CCC=C(c2c(C3CC3)nc(N3CCN(C(=O)CCO)[C@H](C4CC4)C3)c(C#N)c2C)C1 [Compound 755, (R)-5-(1-acryloyl-1,2,5,6-tetrahydropyridin-3-yl)-6-cyclopropyl-2-(3-cyclopropyl-4-(3-hydroxypropanoyl)piperazin-1-yl)-4-methylnicotinonitrile] | < 500 | < 500 | < 500
9 | C=Cc1cc(-c2c(C3CC3)nc(N3CCN(C(=O)C[C@H]4CCO4)[C@H](C4CC4)C3)c(C#N)c2C)cnn1 [Compound 785, 6-cyclopropyl-2-((R)-3-cyclopropyl-4-(2-((R)-oxetan-2-yl)acetyl)piperazin-1-yl)-4-methyl-5-(6-vinylpyridazin-4-yl)nicotinonitrile] | < 500 | < 500 | < 500
10 | COCCC(=O)N1CCN(c2nc(C3CC3)c(-c3ccc(NC(C)=O)cc3)cc2C#N)C[C@H]1C [Compound 412, (R)—N-(4-(5-cyano-2-cyclopropyl-6-(4-(3-methoxypropanoyl)-3-methylpiperazin-1-yl)pyridin-3-yl)phenyl)acetamide] | < 500 | 1000 to 10000 | 500 to 1000
11 | C=Cc1cc(Oc2cc(C#N)c(N3CCN(C(=O)CCOC)[C@H](C4CC4)C3)nc2C2CC2)ccn1 [Compound 693, (R)-6-cyclopropyl-2-(3-cyclopropyl-4-(3-methoxypropanoyl)piperazin-1-yl)-5-(2-vinylpyridin-4-yloxy)nicotinonitrile] | < 500 | < 500 | < 500
12 | CCC(Oc1cc(C#N)c(N2CCN(C(=O)CCOC)[C@H](C)C2)nc1C1CC1)c1ccccc1 (stereo partly drawn) [Compound 308, 6-cyclopropyl-2-((R)-4-(3-methoxypropanoyl)-3-methylpiperazin-1-yl)-5-(1-phenylpropoxy)nicotinonitrile] | < 500 | 1000 to 10000 | 1000 to 10000
13 | C=Cc1cc(-c2cc(C#N)c(N3CCN(C(=O)CCO)[C@H](C)C3)nc2C2CC2)c2cccnc2n1 [Compound 625, (R)-6-cyclopropyl-2-(4-(3-hydroxypropanoyl)-3-methylpiperazin-1-yl)-5-(2-vinyl-1,8-naphthyridin-4-yl)nicotinonitrile] | < 500 | < 500 | < 500
14 | C=Cc1cc(-c2c(C3CC3)nc(N3CCN(C(=O)CCc4ccco4)[C@H](C4CC4)C3)c(C#N)c2C)ccn1 [Compound 796, (R)-2-cyclopropyl-6-(3-cyclopropyl-4-(3-(furan-2-yl)propanoyl)piperazin-1-yl)-4-methyl-2′-vinyl-3,4′-bipyridine-5-carbonitrile] | < 500 | < 500 | < 500
15 | N#Cc1cc(Nc2cc(C#N)c(N3CCN(C(=O)C[C@H]4CCO4)[C@H](C4CC4)C3)nc2C2CC2)ccn1 [Compound 783, 4-(5-cyano-2-cyclopropyl-6-((R)-3-cyclopropyl-4-(2-((R)-oxetan-2-yl)acetyl)piperazin-1-yl)pyridin-3-ylamino)picolinonitrile] |  | < 500 | < 500
16 | C=Cc1cc(-c2cc(C#N)c(N3CCN(C(=O)C4CC4)[C@H](C4CC4)C3)nc2C2CC2)nc(N)n1 [Compound 700, (R)-5-(2-amino-6-vinylpyrimidin-4-yl)-2-(4-(cyclopropanecarbonyl)-3-cyclopropylpiperazin-1-yl)-6-cyclopropylnicotinonitrile] |  | < 500 | < 500
17 | C=Cc1ccnc(Nc2cc(C#N)c(N3CCN(C(=O)CCOC)[C@H](C(C)C)C3)nc2C2CC2)c1 [Compound 758, (R)-6-cyclopropyl-2-(3-isopropyl-4-(3-methoxypropanoyl)piperazin-1-yl)-5-((4-vinylpyridin-2-yl)amino)nicotinonitrile] | < 500 |  | < 500
18 | N#Cc1cc(-c2cnnc(OS(=O)(=O)C(F)(F)F)c2)c(C2CC2)nc1N1CCN(C(=O)C2CC2)[C@H](C2CC2)C1 [Compound 687, (R)-5-(5-cyano-6-(4-(cyclopropanecarbonyl)-3-cyclopropylpiperazin-1-yl)-2-cyclopropylpyridin-3-yl)pyridazin-3-yl trifluoromethanesulfonate] | < 500 |  | 500 to 1000
19 | CCO[C@H]1C[C@@H]1C(=O)N1CCN(c2nc(C3CC3)c(-c3cccc4cnccc34)cc2C#N)C[C@H]1C1CC1 [Compound 518, 6-cyclopropyl-2-((R)-3-cyclopropyl-4-((1S,2S)-2-ethoxycyclopropanecarbonyl)piperazin-1-yl)-5-(isoquinolin-5-yl)nicotinonitrile] | < 500 |  | < 500
20 | N#Cc1cc(Cc2ccnc(Cl)c2)c(C2CC2)nc1N1CCN(C(=O)CCO)[C@H](C2CC2)C1 [Compound 708, (R)-5-((2-chloropyridin-4-yl)methyl)-6-cyclopropyl-2-(3-cyclopropyl-4-(3-hydroxypropanoyl)piperazin-1-yl)nicotinonitrile] | < 500 |  | 1000 to 10000
21 | C=Cc1cc(-c2c(C3CC3)nc(N3CCN(C(=O)CCO)[C@H](C(C)C)C3)c(C#N)c2C)cnn1 [Compound 773, (R)-6-cyclopropyl-2-(4-(3-hydroxypropanoyl)-3-isopropylpiperazin-1-yl)-4-methyl-5-(6-vinylpyridazin-4-yl)nicotinonitrile] | < 500 |  | < 500
22 | C=Cc1cc(-c2cc(C#N)c(N3CCN(C(=O)COC)[C@H](C4CC4)C3)nc2C2CC2)nc(N)n1 [Compound 759, (R)-5-(2-amino-6-vinylpyrimidin-4-yl)-6-cyclopropyl-2-(3-cyclopropyl-4-(2-methoxyacetyl)piperazin-1-yl)nicotinonitrile] | < 500 |  | < 500
